Test results: ChEMBL document CHEMBL1201862, “PubChem BioAssay data set” (2004)
The source made the active and inactive calls.

How the values were obtained:
[1] = target: T1, Lysosomal acid glucosylceramidase (Homo sapiens, UniProt P04062); assay: Dose response cell-based high throughput screening assay to identify enhancers of beta-glucosidase activity. [Related pubchem assays: 784 ]; type: functional
T1 sequence (P04062 whole entry): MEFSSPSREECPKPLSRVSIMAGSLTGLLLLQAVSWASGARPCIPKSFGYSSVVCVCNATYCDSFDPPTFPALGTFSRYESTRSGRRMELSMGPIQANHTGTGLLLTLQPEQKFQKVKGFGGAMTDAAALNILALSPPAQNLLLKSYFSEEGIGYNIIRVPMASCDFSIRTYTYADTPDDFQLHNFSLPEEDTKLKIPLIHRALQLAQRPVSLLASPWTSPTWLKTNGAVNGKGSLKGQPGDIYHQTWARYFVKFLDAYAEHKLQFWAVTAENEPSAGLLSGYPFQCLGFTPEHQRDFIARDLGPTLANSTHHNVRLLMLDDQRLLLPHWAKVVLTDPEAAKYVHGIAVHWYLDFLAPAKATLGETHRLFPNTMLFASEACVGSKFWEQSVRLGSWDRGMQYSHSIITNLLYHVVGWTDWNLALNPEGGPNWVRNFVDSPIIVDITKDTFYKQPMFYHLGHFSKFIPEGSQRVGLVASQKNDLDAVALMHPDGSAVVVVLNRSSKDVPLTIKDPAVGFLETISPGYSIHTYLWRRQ

[2] = HPDE-C7 pancreatic duct cell viability loss – fluorescence, HTS (AID 430); type: functional, cell-based; conditions: Homo sapiens
[3] = microbe, parasite or virus in culture; type: functional; conditions: Mycobacterium tuberculosis
[4] = viability loss of HPDE-C7K cells – cell-based, fluorescence, HTS, primary screen (AID 431); type: functional; conditions: Homo sapiens
[5] = viability of PTEN-deleted HCT116 cells – cell-based, HCT116 PTEN knockout, dose response (AID 1047); type: functional;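 note: HCT116 colon tumor cells with PTEN knocked out; cells exposed to compound for 60 hours before readout; potency for loss of cell viability measured by luminescence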
[6] = viability of HCT116 lacking mutant beta-catenin – cell-based, human colon tumor, dose response (AID 1045); type: functional;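 note: HCT116 colon tumor cells with beta catenin knocked out; cells exposed to compound for 60 hours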
[7] = target: G-protein coupled receptor 55 (Homo sapiens, UniProt Q9Y2T6); assay: selective activators of receptor GPR55 – imaging, U2OS cells, beta-arrestin-GFP redistribution, primary screen (AID 1961); type: functional
Chain of G-protein coupled receptor 55 (Q9Y2T6 whole entry): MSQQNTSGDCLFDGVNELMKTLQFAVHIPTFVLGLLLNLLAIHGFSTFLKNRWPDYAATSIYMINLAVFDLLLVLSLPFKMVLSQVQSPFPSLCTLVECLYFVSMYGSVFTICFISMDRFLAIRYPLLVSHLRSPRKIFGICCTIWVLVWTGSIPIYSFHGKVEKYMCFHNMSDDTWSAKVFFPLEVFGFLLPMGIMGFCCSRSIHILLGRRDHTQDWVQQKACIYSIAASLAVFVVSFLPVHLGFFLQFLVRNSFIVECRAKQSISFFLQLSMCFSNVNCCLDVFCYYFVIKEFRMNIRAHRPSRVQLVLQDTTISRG

Cytochrome P450 2D6 = Cytochrome P450 2D6 (Homo sapiens, UniProt P10635);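 note: CYP2D6 member of a cytochrome P450 panel assay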
Chain of Cytochrome P450 2D6 (P10635 whole entry): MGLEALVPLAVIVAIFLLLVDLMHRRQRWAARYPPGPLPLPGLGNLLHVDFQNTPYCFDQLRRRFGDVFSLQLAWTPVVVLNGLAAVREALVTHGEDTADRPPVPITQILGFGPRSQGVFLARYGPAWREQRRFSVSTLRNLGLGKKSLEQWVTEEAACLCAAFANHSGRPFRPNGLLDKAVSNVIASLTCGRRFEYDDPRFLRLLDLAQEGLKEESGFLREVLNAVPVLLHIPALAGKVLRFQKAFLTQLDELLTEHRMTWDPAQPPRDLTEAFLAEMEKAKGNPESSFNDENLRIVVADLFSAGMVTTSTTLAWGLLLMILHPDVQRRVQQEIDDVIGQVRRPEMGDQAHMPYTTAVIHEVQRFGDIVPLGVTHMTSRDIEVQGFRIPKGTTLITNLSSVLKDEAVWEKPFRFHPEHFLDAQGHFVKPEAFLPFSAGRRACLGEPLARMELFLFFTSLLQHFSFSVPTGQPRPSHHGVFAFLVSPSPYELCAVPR

[8] = target: DNA dC->dU-editing enzyme APOBEC-3A (Homo sapiens, UniProt P31941); assay: A3A deaminase inhibition for selectivity – biochemical, dose response (AID 504722); type: functional
Chain of DNA dC->dU-editing enzyme APOBEC-3A (P31941 whole entry): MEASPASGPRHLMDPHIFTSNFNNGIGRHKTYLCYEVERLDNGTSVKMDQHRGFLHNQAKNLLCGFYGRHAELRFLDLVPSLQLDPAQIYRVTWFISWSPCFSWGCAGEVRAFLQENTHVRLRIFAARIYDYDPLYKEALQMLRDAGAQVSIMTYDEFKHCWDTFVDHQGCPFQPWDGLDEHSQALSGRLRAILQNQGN

[9] = target: DNA dC->dU-editing enzyme APOBEC-3G (Homo sapiens, UniProt Q9HC16); assay: Dose Response confirmation of small molecule APOBEC3G DNA Deaminase Inhibitors via a fluorescence-based single-stranded DNA deaminase assay. [Related pubchem assays (depositor defined):AID493012, AID493028]; type: functional
Chain of DNA dC->dU-editing enzyme APOBEC-3G (Q9HC16 whole entry): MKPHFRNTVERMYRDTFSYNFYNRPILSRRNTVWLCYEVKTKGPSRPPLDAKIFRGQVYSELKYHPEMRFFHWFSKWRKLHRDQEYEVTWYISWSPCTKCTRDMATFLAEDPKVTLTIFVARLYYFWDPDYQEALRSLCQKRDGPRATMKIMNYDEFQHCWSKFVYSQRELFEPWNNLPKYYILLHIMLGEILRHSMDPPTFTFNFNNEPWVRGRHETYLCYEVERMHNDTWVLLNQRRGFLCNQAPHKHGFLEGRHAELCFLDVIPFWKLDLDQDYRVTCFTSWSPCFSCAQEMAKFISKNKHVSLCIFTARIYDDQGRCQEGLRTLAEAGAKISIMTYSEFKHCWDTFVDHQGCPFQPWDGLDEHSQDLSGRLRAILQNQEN

[10] = THP-1 cell cytotoxicity, dose response, cytotoxicity control for non-replicating M. tuberculosis project (AID 489025); type: functional
[11] = HepG2 cell cytotoxicity, dose response, cytotoxicity control for non-replicating M. tuberculosis project (AID 489018); type: functional; conditions: Mycobacterium tuberculosis
cells = type: functional
[12] = reduction of Shn3 3'UTR-driven luciferase in osteoblasts – cell-based, Clone20 osteoblasts, firefly luciferase, cherry-picked, dose response (AID 624132); type: functional;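 note: firefly luciferase luminescence from reporter carrying the Shn3 3'UTR in osteoblasts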
[13] = loss of viability in HepG2 cells – cell-based, CellTiter-Glo, cherry-picked, cytotoxicity control for Shn3 inhibitor project, dose response (AID 624134); type: functional
[14] = non-specific 3'UTR reporter inhibition in Clone20-Shn3RL – cell-based, Renilla luciferase, cherry-picked, counter-screen for Shn3 inhibitor project, dose response (AID 624133); type: functional
[15] = viability loss in HeLa cells – cytotoxicity control for MgcRacGAP inhibitor project, dose response (AID 624300); type: functional
[16] = target: T2, Rac GTPase-activating protein 1 (Homo sapiens, UniProt Q9H0H5); assay: blockers of MgcRacGAP-driven Rac1 GTP hydrolysis – biochemical, ADP Hunter fluorescence, primary and confirmatory, confirmation (AID 624330); type: functional
T2 sequence (Q9H0H5 whole entry): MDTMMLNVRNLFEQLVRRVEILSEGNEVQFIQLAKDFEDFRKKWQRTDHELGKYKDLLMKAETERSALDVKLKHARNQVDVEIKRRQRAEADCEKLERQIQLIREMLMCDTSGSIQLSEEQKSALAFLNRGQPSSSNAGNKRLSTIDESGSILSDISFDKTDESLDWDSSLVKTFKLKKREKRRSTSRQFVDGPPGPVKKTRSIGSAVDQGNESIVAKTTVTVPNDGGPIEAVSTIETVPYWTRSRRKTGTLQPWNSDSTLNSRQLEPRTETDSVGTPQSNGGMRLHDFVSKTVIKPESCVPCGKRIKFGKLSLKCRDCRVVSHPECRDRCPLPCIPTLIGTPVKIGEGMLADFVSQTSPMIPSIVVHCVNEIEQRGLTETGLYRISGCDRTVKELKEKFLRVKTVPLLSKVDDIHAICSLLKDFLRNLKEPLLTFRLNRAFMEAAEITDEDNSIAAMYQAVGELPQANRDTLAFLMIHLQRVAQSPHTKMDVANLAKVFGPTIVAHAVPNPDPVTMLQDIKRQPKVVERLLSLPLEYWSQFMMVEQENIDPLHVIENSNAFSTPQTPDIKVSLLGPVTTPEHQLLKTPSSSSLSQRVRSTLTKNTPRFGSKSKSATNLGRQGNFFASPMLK

[17] = A549 cell cytotoxicity, dose response, cytotoxicity control, plate reader, cherry-pick, antagonist series (AID 743412); type: functional, cell-based
[18] = toxicity toward HepG2 liver cells – cell-based, plate reader, cherry-pick, antagonist series, cytotoxicity control, dose response (AID 743416); type: functional
[19] = blockers of bursicon-stimulated LGR2 cAMP reporter – cell-based, HEK293, CRE-luciferase reporter, cherry pick, set 2, dose response (AID 743343); type: functional;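 note: transfected cells were stimulated with diluted bursicon conditioned medium after compound addition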
[20] = blockade of melanocortin 4 receptor signaling – cell-based, plate reader, cherry pick, counter-screen for LGR2 antagonist project, dose response (AID 743444); type: functional;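 note: transfected HEK 293 cells stimulated with alpha-MSH peptide; potency of inhibitors of the alpha-MSH evoked signal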
[21] = target: Voltage-dependent T-type calcium channel subunit alpha-1H (Homo sapiens, UniProt O95180); assay: human CACNA1H calcium influx blockade – cell-based, synthetic library set 1, calcium flux (AID 493022); type: functional
Chain of Voltage-dependent T-type calcium channel subunit alpha-1H (O95180 whole entry): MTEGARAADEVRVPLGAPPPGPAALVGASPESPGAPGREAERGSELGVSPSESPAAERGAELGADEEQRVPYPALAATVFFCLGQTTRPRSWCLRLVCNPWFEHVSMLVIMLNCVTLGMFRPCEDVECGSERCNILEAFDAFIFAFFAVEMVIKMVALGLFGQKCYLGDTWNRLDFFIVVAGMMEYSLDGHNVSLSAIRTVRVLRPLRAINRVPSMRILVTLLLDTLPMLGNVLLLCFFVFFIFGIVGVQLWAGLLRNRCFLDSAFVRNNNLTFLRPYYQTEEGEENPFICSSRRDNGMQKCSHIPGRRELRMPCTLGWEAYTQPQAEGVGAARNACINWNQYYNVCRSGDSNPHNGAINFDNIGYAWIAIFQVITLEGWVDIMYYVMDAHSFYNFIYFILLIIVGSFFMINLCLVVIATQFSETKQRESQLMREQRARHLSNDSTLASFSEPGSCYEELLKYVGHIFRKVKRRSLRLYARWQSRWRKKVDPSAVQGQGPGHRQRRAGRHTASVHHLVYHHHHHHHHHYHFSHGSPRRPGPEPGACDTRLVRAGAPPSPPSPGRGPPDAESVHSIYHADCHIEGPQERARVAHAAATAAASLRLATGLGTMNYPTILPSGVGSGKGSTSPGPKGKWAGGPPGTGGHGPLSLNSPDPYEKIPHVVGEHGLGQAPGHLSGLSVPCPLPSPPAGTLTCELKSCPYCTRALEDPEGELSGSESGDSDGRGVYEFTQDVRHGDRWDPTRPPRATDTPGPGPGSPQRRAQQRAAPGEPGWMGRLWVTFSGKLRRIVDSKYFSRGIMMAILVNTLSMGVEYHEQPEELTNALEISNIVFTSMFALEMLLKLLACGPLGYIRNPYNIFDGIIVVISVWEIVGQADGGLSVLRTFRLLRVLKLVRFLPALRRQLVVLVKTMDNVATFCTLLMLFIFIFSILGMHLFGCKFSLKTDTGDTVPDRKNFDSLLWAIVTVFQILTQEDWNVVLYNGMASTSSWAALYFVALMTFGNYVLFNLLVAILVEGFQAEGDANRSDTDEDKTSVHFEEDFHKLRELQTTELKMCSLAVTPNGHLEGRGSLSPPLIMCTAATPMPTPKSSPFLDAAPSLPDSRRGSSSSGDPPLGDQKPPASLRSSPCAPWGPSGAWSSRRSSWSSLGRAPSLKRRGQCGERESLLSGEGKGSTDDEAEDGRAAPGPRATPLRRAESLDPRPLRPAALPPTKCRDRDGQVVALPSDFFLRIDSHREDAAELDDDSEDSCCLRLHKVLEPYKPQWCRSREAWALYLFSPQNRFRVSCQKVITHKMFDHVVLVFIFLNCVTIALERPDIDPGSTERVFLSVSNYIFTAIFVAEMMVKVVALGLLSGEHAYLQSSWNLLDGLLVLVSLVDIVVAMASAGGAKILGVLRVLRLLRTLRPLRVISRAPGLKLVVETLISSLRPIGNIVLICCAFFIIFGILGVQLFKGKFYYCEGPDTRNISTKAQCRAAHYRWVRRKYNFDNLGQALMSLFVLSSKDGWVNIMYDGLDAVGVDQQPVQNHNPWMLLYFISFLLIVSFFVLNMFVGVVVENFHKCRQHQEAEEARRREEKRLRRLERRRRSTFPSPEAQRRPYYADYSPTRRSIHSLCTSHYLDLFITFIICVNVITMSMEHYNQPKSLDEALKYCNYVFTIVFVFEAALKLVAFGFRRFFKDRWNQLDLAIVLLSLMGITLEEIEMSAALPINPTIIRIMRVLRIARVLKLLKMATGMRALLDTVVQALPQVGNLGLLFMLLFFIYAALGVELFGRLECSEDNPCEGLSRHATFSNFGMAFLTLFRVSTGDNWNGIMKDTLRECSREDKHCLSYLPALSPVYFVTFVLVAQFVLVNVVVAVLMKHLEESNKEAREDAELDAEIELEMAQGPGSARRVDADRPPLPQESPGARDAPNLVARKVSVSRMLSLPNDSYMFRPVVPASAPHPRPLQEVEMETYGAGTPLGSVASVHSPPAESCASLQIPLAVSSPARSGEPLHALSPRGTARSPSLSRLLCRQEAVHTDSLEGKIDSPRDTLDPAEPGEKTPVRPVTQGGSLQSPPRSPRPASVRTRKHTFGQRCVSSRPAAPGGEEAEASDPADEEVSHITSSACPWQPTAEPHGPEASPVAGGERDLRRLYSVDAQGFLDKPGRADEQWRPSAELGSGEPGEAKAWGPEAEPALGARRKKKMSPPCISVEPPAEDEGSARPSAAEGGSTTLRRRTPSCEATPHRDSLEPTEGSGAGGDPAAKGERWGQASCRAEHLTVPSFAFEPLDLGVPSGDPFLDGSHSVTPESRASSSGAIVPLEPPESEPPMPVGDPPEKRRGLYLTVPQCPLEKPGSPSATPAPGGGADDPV

FC(F)(F)c1ccc(N2CCOCC2)c(Nc2nc3ccccc3n3cnnc23)c1
EC50 [1]: > 50 µM (not active)
EC50 [2]: 5.89 µM (active)
CC50 [3]: 27.4 µM (active)
EC50 [4]: 5.98 µM (active)
EC50 [5]: 13.5 µM (active)
EC50 [6]: 16.5 µM (active)
EC50 [7]: 4.18 µM (active)
AC50 (Cytochrome P450 2D6): 28.2 µM (inconclusive)

Cc1ccc(-c2nnc(S)n2/N=C\c2ccco2)cc1
IC50 [8]: > 100 µM (inactive)
IC50 [9]: 2.86 µM (active)

CCn1c2ccccc2c2cc(CNCc3ccc(OC)cc3OC)ccc21
CC50 [3]: 19.3 µM (active)
CC50 [10]: 16.7 µM (active)
CC50 [11]: 15.6 µM (active)
IC50 (cells): 12.8 µM (active)
AC50 [12]: 14.7 µM (active)
AC50 [13]: 16.9 µM (active)
AC50 [14]: 14.8 µM (active)
CC50 [15]: 37 µM (active)
IC50 [16]: 99.7 µM (active)
AC50 [17]: 13.6 µM (active)
AC50 [18]: 13.8 µM (active)
AC50 [19]: 18.6 µM (active)
AC50 [20]: 32.9 µM (active)

O=C(COc1ccc(F)cc1)Nc1nnc(-c2ccc3ccccc3c2)o1
EC50 [21]: 3.5 µM (active)
